In US20230139883A1, “Peptides for Inducing Differentiation” (Shimadzu Corporation, priority 2020, published 2023):

B1: 100nX-Dimer: a dimerized peptide of 100nX (SEQ ID NO: 9) (peptide)
chain 1: CAAELAALEAELAALEGVPGDNNGTRGKLYHLKNKLHRLKNAC
chain 2: B1 chain 1
modifications: dimerized

Experiments:
[1] = system: FGFR2; test: Yeast display screening (MACS/FACS) against FGFR2 with Sanger sequencing of single colonies; type: binding; details: frequency of the clone among randomly selected single colonies after FGFR2 screening
Method: Cells were then charged to an LS column attached to a magnetic stand. In order to remove yeast cells not bound to FGFR2, 7 mL of PBSM was flowed through the LS column twice. The LS column was then removed from the magnetic stand and FGFR2-binding yeast clones were collected by flowing SDCAA medium and cultured. The above operations were deemed as one round, and a total of three rounds were performed (Table 10). Next, yeast clones with high binding activity were screened from the yeast collected by MACS, using FACS (Fluorescence-activated cell sorting). FGFR2-Fc and mouse anti-FLAG antibodies were bound to the yeast library, followed by binding of anti-mouse IgG-Alexa488 and anti-human Fc antibody-Alexa647. […] The binding of the peptide to FGFR2 can also be detected by the fluorescence intensity of Alexa647. With that, yeast clones with high fluorescence intensities of Alexa488 and Alexa647 were collected by FACS cell sorter (BD FACS AriaIII).
The phage library eluted after panning of Example 7 (Table 9: Input phage (Round 4)) was subjected to Human IgG Fc-immobilized plate, and negative selection was performed by collecting unbound phages. The phage library was then acted to FGFR3 prepared to concentrations of 100 nM, 10 nM, and 1 nM. Bound phages were then collected. The genomic DNA of the collected phages was extracted, samples were prepared according to Illumina's protocol for Miseq, and a comprehensive analysis of the phage genomic DNA was performed. Among the sequences obtained, 20 sequences high incidence rates were selected (Table 11). The yeast cells acquired in the screening of Example 8 were seeded onto SDCAA agar plates and cultured. Fourteen single colonies formed on the agar plates were randomly selected, and for each clone, the peptide DNA sequence incorporated into the yeast expression plasmid was analyzed using the Sanger method (Table 12).

[2] = system: FGFR3; test: Phage display selection against FGFR3 with Miseq analysis of the bound phages; type: binding; details: for 1 nM Num. of reads: phage library after panning Round 4, bound to 1 nM FGFR3; for 10 nM Num. of reads: phage library after panning Round 4, bound to 10 nM FGFR3; for 100 nM Num. of reads: phage library after panning Round 4, bound to 100 nM FGFR3; for 1 nM Ranking / 10 nM Ranking / 100 nM Ranking: rank by number of reads; for 1 nM Ranking: 1 nM FGFR3; for 10 nM Ranking: 10 nM FGFR3; for 100 nM Ranking: 100 nM FGFR3
Method: The collected phage library was mixed with 100 nM of FGFR3 solution and allowed to react overnight at 4° C. (Table 9: Panning Round 1). After the reaction, the binding phages were captured by magnetic beads modified with protein A, and washed three times with PBS-T, followed by eluting the bound phages with Gly-HCl (pH 2.0). After neutralizing with 2M Tris, the pages were infected to E. coli (TG1 strain). After 4 hours of incubation, helper phages were added, and the E. coli (TG1 strain) were allowed to produce phages overnight. Next, phage solution was prepared from the culture supernatant. The prepared phage solution was mixed with FGFR3 solution and allowed to react overnight at 4° C. (Table 9: Panning Round 2). After the reaction, the bound phages were eluted. Phage solution prepared in the same way was mixed with FGFR3 solution and allowed to react at 4° C. for 1 hour (Table 9: Panning Round 3). After the reaction, the bound phages were eluted. This operation was further repeated, and after Panning Round 4, the bound phages were eluted. Note that as the rounds proceeded, the number of washes with PBS-T was increased. (Table 9). The titer of the Output phage in each round was also determined. The titer of phage was determined from the number of colonies obtained by incubating the E. coli TG1 strain contacted with the phage at 37° C. overnight. The phage library eluted after panning of Example 7 (Table 9: Input phage (Round 4)) was subjected to Human IgG Fc-immobilized plate, and negative selection was performed by collecting unbound phages. The phage library was then acted to FGFR3 prepared to concentrations of 100 nM, 10 nM, and 1 nM. Bound phages were then collected. The genomic DNA of the collected phages was extracted, samples were prepared according to Illumina's protocol for Miseq, and a comprehensive analysis of the phage genomic DNA was performed. Among the sequences obtained, 20 sequences high incidence rates were selected (Table 11). The yeast cells acquired in the screening of Example 8 were seeded onto SDCAA agar plates and cultured. Fourteen single colonies formed on the agar plates were randomly selected, and for each clone, the peptide DNA sequence incorporated into the yeast expression plasmid was analyzed using the Sanger method (Table 12).

[3] = system: iPS-hFB; test: Differentiation induction of iPS cells into cardiomyocytes: observation of beating cell clusters; details: Example 3: 0.05 μM peptide + Activin A on Day 1, no bFGF
[4] = system: iPS-hFB; test: Differentiation induction of iPS cells into cardiomyocytes: RT-qPCR of cardiomyocyte markers cTNT and Actinin; details: Day 23
[5] = Example 3, protocol 5, 0.05 μM, compared to protocols 1, 3, 4 or 6

Molecule	Frequency [1]	1 nM Num. of reads [2]	10 nM Num. of reads [2]	100 nM Num. of reads [2]	1 nM Ranking [2]	10 nM Ranking [2]	100 nM Ranking [2]	further results
CAKELLALKRELKALQGGGGGGG----KLRALQLKLYALLLAC [FGFR_Y11]	2	–	–	–	–	–	–	–
CAAELAALEAELAALEGPSRVGSRRRGKLNLLKYKLHGLKLAC [FGFR_Y13]	1	–	–	–	–	–	–	–
CAAELAALEAELAALEGGGGGGG----KLMDLHYQLYNLFIAC [FGFR_Y01]	1	–	–	–	–	–	–	–
CAHHLASLEYDLAILEGGDGGGG----HLARLKRQLAELKNAC [FGFR_Y16]	1	–	–	–	–	–	–	–
CAAELAALEAELAALEGGRDRTLELSGKLLVLKSKLHWLKHAC [F3-100n251]	–	3203	2387	3153	2	1	2	–
CAAELAALEAELAALEGLHTLTLMQTGKLLVLKMKLRELKWAC [F3-100n192]	–	1100	707	857	15	23	28	–
CAVELYALHRELYALYGGGGGGS----KLYALYLKLLALQLAC [FGFR_Y05]	1	–	–	–	–	–	–	–
CARELQALLKELQALGGGGGGGG----KLLALFVKLYALRLAC [FGFR_Y02]	1	–	–	–	–	–	–	–
CAAELAALEAELAALEGRPVRTVLTNGKLMVLKSKLQELKHAC [F3-100n182]	–	1723	1143	1423	7	8	8	–
CAAELAALEAELAALEGKEHPTLRTSGKLLHLKLKLHELKRAC [F3-100n131]	–	2801	2079	2648	3	4	3	–
CPRELEALRRELGALMGGGGGGG----KLNALMLKLYALHNAC [FGFR_Y14]	1	–	–	–	–	–	–	–
CARELQALGKELKALKGGGGGGG----KLRALQLKLYALQVAC [FGFR_Y10]	1	–	–	–	–	–	–	–
CALELLALRGELEALRGGGGGGG----KLGALHLKLFALQWAC [FGFR_Y08]	1	–	–	–	–	–	–	–
CAQELRALLRELQALGGGGGGGG----KLGALVFKLYALMLAC [FGFR_Y15]	1	–	–	–	–	–	–	–
CAAELAALEAELAALEGLDYHTVLSTGKLMVLKRKLNILKLAC [F3-100n250]	–	966	856	1096	20	14	16	–
CAAELAALEAELAALEGENVYTLGGLGKLMLLKYKLRELKGAC [F3-100n458]	–	1304	789	1023	10	17	20	–

Molecule	Frequency [1]	1 nM Num. of reads [2]	10 nM Num. of reads [2]	100 nM Num. of reads [2]	1 nM Ranking [2]	10 nM Ranking [2]	100 nM Ranking [2]	further results
CAAELAALEAELAALEGQKHFTLGGLGKLIVLKKQLRILKCAC [F3-100n174]	–	1668	1223	1811	8	7	6	–
CAAELAALEAELAALEGRTFTIGEVKGKLQGLIMKLHHLKDAC [F3-100n116]	–	1895	2291	3236	6	2	1	–
CAAELAALEAELAALEGGAPVTIMGVGKLMVLKEKLRNLKDAC [F3-100n16]	–	1095	647	775	16	26	33	–
CAAELAALEAELAALEVGRVKTLGRYGKLMVLKHQLRNLKCAC [F3-100n161]	–	1045	903	1261	19	10	9	–
CAAELAALEAELAALEGETNMTVLMTGKLLVLKHKLEHLKWAC [F3-100n386]	–	1216	781	1028	13	18	19	–
CAQELVALHMELRALGGGGGGGG----KLQALYLKLFALDHAC [FGFR_Y04]	1	–	–	–	–	–	–	–
CAAELAALEAELAALEGVKELTLGTVGKLMSLKYKLWSLKQAC [F3-100n410]	–	2547	1717	2279	4	5	5	–
CAAELAALEAELAALEGSTARTLMQVGKLEMLKYKLLELKCAC [F3-100n3]	–	1084	613	850	17	29	29	–
CAAELAALEAELAALEGEVNMTRARAGKLLVLKVKLHGLKQAC [F3-100n504]	–	1062	741	1006	18	21	21	–
CARELRALRRELRALQGGGGGGG----KLHALHRKLFALMVAC [FGFR_Y06]	1	–	–	–	–	–	–	–
CAAELAALEAELAALEGGAFLTVGRAGKLMMLKQKLVRLKCAC [F3-100n117]	–	1355	948	1188	9	9	12	–
CAAELAALEAELAALEGPPRPHLPPLGKLFLLKFKLYLLKGAC [FGFR_Y09]	1	–	–	–	–	–	–	–
CAAELAALEAELAALEGGGGGGG----FLRNLHIKLYLLQFAC [FGFR_Y07]	1	–	–	–	–	–	–	–
CAAELAALEAELAALEGEGMSTLNRQGKLSVLKSKLLWLKHAC [F3-100n228]	–	2006	1447	1753	5	6	7	–
B1	–	–	–	–	–	–	–	day on which beating cell clusters were observed [3]: 11 days; ACTN2 expression level [4, 5]: significantly increased; cTNT expression level [4, 5]: significantly increased; gene expression levels (cTNT, ACTN2) ([4]; Example 4: peptide in combination with bFGF, compared to conventional protocol 1): significantly increased
